Test results reported in article PMC12679539, “Synthesis and evaluation of nitroheterocyclic aromatic adamantane amides with trypanocidal activity. Part II” (RSC Medicinal Chemistry, 2025).
Where two headings read alike, the source gives them in different places.

How the values were obtained:
[1] = Cytotoxicity on THP-1-derived macrophages (MTT assay); assay type: cell-based; conditions: human, THP-1-derived macrophages (PMA-differentiated), value or interval
Method: The THP-1 cell line, a human leukemia line (ATCC® TIB-202™), was cultured in RPMI-1640 medium supplemented with 10% heat-inactivated fetal bovine serum (FBS), 2 mM. L-Glutamine, 100 IU mL^−1 penicillin/streptomycin, and 20 mM HEPES. The cells were maintained in a humidified incubator at 37 °C with 5% CO2. Subculturing was performed every three days, using 20 mL of media at a concentration of 2 × 10^5 cells per mL in a T75 flask. All cell culture reagents were purchased from Lonza Bioscience (Morrisville, NC).
The cytotoxicity of the compounds on THP-1-derived macrophages was evaluated using the colorimetric MTT assay (3-(4,5-dimethylthiazol-2-yl)-2,5-diphenyltetrazolium bromide), as described in Magoulas et al. (2021).[28] THP-1 cells were suspended in complete RPMI medium at a density of 1 × 10^6 cells per mL, and 100 μL of this suspension was seeded into each well of a 96-well plate. The cells were differentiated into macrophages by adding 40 ng mL^−1 of phorbol-myristate 13-acetate (PMA, Sigma, Saint Louis, MI, USA) for 24 hours, followed by replacement with fresh medium for an additional 24 hours. Subsequently, the cells were incubated with 100 μL of various compounds, diluted in complete RPMI medium, at concentrations ranging from 100 to 12.5 μM. Each condition was tested in triplicate. After 72 hours of incubation at 37 °C with 5% CO2, the medium was removed, and 200 μL of a 0.5 mg mL^−1 MTT solution, diluted in RPMI, was added to each well. The plates were incubated for an additional 4 hours. Following this incubation, 160 μL of the medium was removed and replaced with 160 μL of 2-propanol. Absorbance was measured at 570 nm using a Synergy 2 Multi-Mode Reader (Biotek, Winooski, VT, USA). Cytotoxicity was determined by presenting the CC50 (the concentration of the drug that reduces cell viability by 50%) interval or by calculating the CC50 value through non-linear regression analysis using GraphPad Prism version 8.1.1 for Windows (GraphPad Software, San Diego, CA, USA). The results represent the average of at least three independent experiments.

[2] = tested on: L. infantum promastigotes; experiment: Activity against Leishmania infantum promastigotes (resazurin assay); assay type: cell-based, Leishmania infantum (MHOM/MA/67/ITMAP-263); conditions: for IC50: Leishmania infantum, promastigotes, 72 h, 95% CI in brackets
Method: Promastigotes from the L. infantum strain (MHOM/MA/67/ITMAP-263) were cultivated in 5 ml of Schneider's insect medium, which was supplemented with 10% heat-inactivated fetal bovine serum (FBS), 200 U ml^−1 of penicillin/streptomycin, 6 μg ml^−1 of phenol red, and 5 mM of HEPES. The cultures were maintained in an incubator at 27 °C and diluted to a concentration of 2 × 10^5 cells per ml every 5 days. For the assays the parasites used were equivalent to late/log with two or three days of culture.
The efficacy of the compounds against L. infantum promastigotes was evaluated using a resazurin-based assay. Parasites were added to 100 μl of serial dilutions of the compounds in supplemented complete medium at a cell density of 5 × 10^5 ml^−1. As a quality control, a dose–response curve with the antileishmanial drug miltefosine was included in all assays. The final volume of each assay was 200 μl per well, and each condition was tested in duplicate. After a 72-hour incubation under specific conditions for each parasite, 20 μl of a 0.5 mM resazurin solution was added, and the plates were incubated for an additional 4 hours under the same conditions. Fluorescence was measured at 544 nm for excitation and 590 nm for emission using a Synergy 2 Multi-Mode Reader (Biotek, Winooski, VT, USA). Results were expressed as the percentage of parasite growth inhibition compared to controls (untreated parasites) and represent the average of at least three independent experiments. The effect was evaluated by determining the IC50 value (the concentration required to inhibit 50% growth), calculated using non-linear regression curves via GraphPad Prism version 8.1.1 for Windows (GraphPad Software, San Diego, CA, USA).

[3] = tested on: L. infantum intracellular amastigotes; experiment: Activity against intracellular L. infantum amastigotes in THP-1 derived macrophages (luciferase); assay type: cell-based, Leishmania infantum (MHOM/MA/67/ITMAP-263); conditions: for inhibition at 10 µM / IC50: Leishmania infantum; for inhibition at 10 µM: read-out: L. infantum (intracellular amastigotes) % of growth inhibition at 10 μM ± ST DEV; for IC50: read-out: L. infantum (intracellular amastigotes) IC50 (μM), 95% CI
Method: Leishmania infantum Luciferase-expressing L. infantum (strain MHOM/MA/67/ITMAP-263) axenic amastigotes were cultured in MAA/20 medium at 37 °C with 5% CO2, as described by Sereno et al. 1998.[26] The parasites were maintained in 5 mL T25 ventilated flasks and subcultured every seven days at a concentration of 1 × 10^6 cells per mL.
The activity against intracellular amastigotes of L. infantum was evaluated using a modified method described by Santarem, Tavares, and Cordeiro-da-Silva (2019).[27] THP-1 cells were differentiated into macrophages using PMA, as previously outlined. The differentiated macrophages were then infected with L. infantum axenic amastigotes expressing episomal luciferase at a macrophage-to-amastigote ratio of 1 : 10 for four hours at 37 °C in a 5% CO2 atmosphere. After this incubation, non-internalized parasites were washed away, and various concentrations of test compounds were added in a final volume of 100 μL. A dose–response curve for miltefosine was included in all assays to serve as a quality control. Each experimental condition was tested in quadruplicate. After 72 hours of incubation, the medium was replaced with 100 μL of PBS, and 25 μL of Glo-lysis buffer from the Steady-Glo Luciferase Assay System (Promega, Madison, WI, USA) was added. The plates were then agitated at 100 rpm for 10 minutes at room temperature. Following this, 30 μL of the Steady-Glo reagent (Promega, Madison, WI, USA) was added, and the mixture was incubated for 15 minutes in the dark under the same conditions. A total of 140 μL from each well was transferred to white-bottom 96-well plates, and luminescence intensity was measured using a Synergy 2 Multi-Mode Reader (Biotek, Winooski, VT, USA). The antileishmanial effect was assessed by comparing the results with those from non-treated infected cells. The IC50 value were determined through non-linear regression analysis using GraphPad Prism version 8.1.1 for Windows (GraphPad Software, San Diego, CA, USA). Results represent the average of at least three independent experiments.

[4] = tested on: bloodstream-form Trypanosoma brucei; experiment: Activity against bloodstream-form Trypanosoma brucei (Alamar Blue growth inhibition); assay type: cell-based, Trypanosoma brucei (strain 427); conditions: for S.I. (selectivity index): ratio of IC50 values obtained with L6 cells and T. brucei
Method: (§1) Bloodstream form T. brucei (strain 427) were cultured at 37 °C in modified Iscove's medium. Trypanocidal activity was assessed by growing parasites in microtiter plates in the presence of various drug concentrations. […] The plates were incubated for 48 hours at 37 °C and 20 μL Alamar Blue was then added to each well. After an additional overnight incubation, the fluorescence was determined using a Gemini fluorescent plate reader (Molecular Devices). Inhibition of growth was calculated by comparison with control values and IC50 and IC90 values were determined in triplicate using linear regression analysis.

T. cruzi epimastigotes [5] = conditions: read-out: T. cruzi (epimastigotes) IC50; cited from earlier work
[6] = tested on: bloodstream-form Trypanosoma brucei; conditions: read-out: T. brucei IC50; cited from earlier work
T. cruzi epimastigotes [7] = experiment: Activity against Trypanosoma cruzi epimastigotes (Alamar Blue growth inhibition); assay type: cell-based, Trypanosoma cruzi (strain CL Brener); conditions: CL Brener
Method: as §1, with “Trypanocidal” for “Bloodstream form T. brucei (strain 427) were cultured at 37 °C in modified Iscove's medium. Trypanocidal”, “4 days” for “48 hours”, “28” for “37”, “Blue (Biosource UK Ltd)” for “Blue”, “3 days” for “overnight”

L6 cells [8] = experiment: Cytotoxic activity against rat skeletal myoblast L6 cells (Alamar Blue); assay type: cell-based; conditions: 120 h, cytotoxicity, 5 days
Method: The cytotoxicity against mammalian cells was assessed using microtitre plates. Briefly, L6 cells (a rat skeletal muscle line) were seeded at 1 × 10^4 mL^−1 in 200 μL of RPMI-1640 growth medium (with 10% fetal calf serum) containing 7 different compound concentrations in a range previously established to encompass both the IC50 and IC90 values. The plates were incubated for 5 days at 37 °C and 20 μL Alamar Blue (Biosource Ltd, Wilton, North Yorkshire England.) was then added to each well. After an additional 8 hours incubation, the fluorescence was determined using a Gemini fluorescent plate reader (Molecular Devices). Inhibition of growth was calculated by comparison with control values and IC50 and IC90 values were determined in triplicate using linear regression analysis.

L6 cells [9] = tested on: L6 cells; set-up: method as in PMID 26479031; conditions: cytotoxicity; cited from earlier work
[10] = tested on: T. cruzi intracellular amastigotes; experiment: microbe, parasite or virus in culture; assay type: cell-based, Trypanosoma cruzi CL Brener PpyRE9h:mScarlet; conditions: Trypanosoma cruzi, 120 h; in HeLa cells, 5 days
Method: Assays were performed in 96-well black (clear bottom) microtitre plates (Corning Inc.). HeLa ^† cells were seeded at 10^4 per well, incubated for 3 days, and then infected with T. cruzi CL Brener PpyRE9h : mScarlet[25] culture form trypomastigotes (1 : 1 multiplicity of infection). After 16 hours, extracellular parasites were removed by washing in growth medium (×3), test compounds were added, and the plates incubated for 5 days. Fluorescence intensities were then determined using a BMG FLUOstar Omega plate reader (ex 545 nm, em 590 nm), and the data analysed using GraphPad Prism 9.0 software. The values were expressed as IC50/90 ± SD and are the mean of triplicate experiments.

For `CCCCCCCCCCCCCCCCOP(=O)([O-])OCC[N+](C)(C)C` [MF, miltefosine, reference compound], the CC50 at 72 h [1] was 30000 nM, the IC50 [2] was 11.9 µM and the “SI (promastigotes) CC50/Li IC50” value ([2]; THP-1 CC50 / L. infantum promastigote IC50) was 2.5. The inhibition at 10 µM ([3]; THP-1, 72 h) was 92 ± 5%, the IC50 ([3]; THP-1 derived macrophages, 72 h, 95% CI in brackets) was 2.65 µM and the “SI (intracellular amastigotes) CC50/Li ia IC50” value ([3]; THP-1 CC50 / L. infantum intracellular amastigote IC50) was 11.3.
In the case of `CC1CS(=O)(=O)CCN1/N=C/c1ccc([N+](=O)[O-])o1` (centres unmarked) [Nfx, nifurtimox], the “S.I. (selectivity index)” value [4] is given as 7, the IC50 (T. cruzi epimastigotes [5]) is given as 3100 ± 500 nM and the IC50 [6] is given as 4400 ± 700 nM.
In the case of `O=C(NCc1ccc(C2C3CC4CC(C3)CC2C4)cc1)c1ccc([N+](=O)[O-])o1` (centres unmarked) [2b, N-[4-(2-Adamantyl)benzyl]-5-nitrofuran-2-carboxamide], the IC50 ([4]; Trypanosoma brucei, bloodstream form, concentration that inhibits growth by 50%, read-out: T. brucei IC50) is reported as 17 ± 3 nM, the IC90 ([4]; Trypanosoma brucei, bloodstream form, concentration that inhibits growth by 90%, read-out: T. brucei IC90) is reported as 31 ± 1 nM and the “S.I. (selectivity index)” value [4] is reported as 95. It also gave a CC50 at 72 h [1] of 12500 to 25000 nM, an IC50 (T. cruzi epimastigotes [7]) of 560 ± 20 nM and an IC90 (T. cruzi epimastigotes [7]) of 1200 ± 20 nM. It also gave an IC50 (L6 cells [8]) of 1600 ± 100 nM, an IC50 [2] of 0.09 µM and an inhibition at 10 µM ([3]; THP-1, 72 h) of 84.6 ± 15.6%. It also gave an IC50 ([3]; THP-1, 72 h) of 3.97 µM.
In the case of `O=C(Cn1ccnc1[N+](=O)[O-])NCc1ccccc1` [Bzn, benznidazole, reference compound], the IC50 (L6 cells [9]) is listed as 510000 ± 22000 nM, the IC50 [10] is listed as 1040 ± 320 nM and the IC90 [10] is listed as 2540 ± 810 nM. It also gave an IC50 (T. cruzi epimastigotes [7]) of 5400 ± 200 nM.
